Structures are written as SMILES. Values after ≈ are worked out from the molar mass of the structure shown. Values joined by “and” are separate entries in the source; they are usually repeats but may differ in a detail not shown here. Equal values may be shown once. Where only a bound is given, the exact number is not on record here.

The first data set relates to Gram-negative bacteria. Description: Broth microdilution, summary over the Gram-negative panel.
Conditions: not given
The data set is classed as cell-based. From the text:
In vitro antimicrobial activity assays - Methodology
The examined compounds 1 - 24 were screened in vitro for antibacterial and antifungal activities using the broth microdilution method according to procedure reported earlier by our research group and European Committee on Antimicrobial Susceptibility Testing (EUCAST) and Clinical and Laboratory Standards Institute (CLSI) guidelines against a panel of reference and clinical or saprophytic strains of microorganisms, in-cluding Gram-positive bacteria, Staphylococcus aureus ATCC 43300 (Methicillin Resistant S. aureus – MRSA), Staphylococcus aureus ATCC 29213 (Methicillin Susceptible S. aureus – MSSA), Staphylococcus epidermidis ATCC 12228, Enterococcus faecalis ATCC 29212, Micro-coccus luteus ATCC 10240, Bacillus subtilis ATCC 6633 and Bacillus cereus ATCC 10876), Gram-negative bacteria (Bordetella bronchiseptica ATCC 4617, Escherichia coli ATCC 25922, Klebsiella pneumoniae ATCC 13883, Proteus mirabilis ATCC 12453, Salmonella typhimurium ATCC 14028 and Pseudomonas aeruginosa ATCC 9027) and fungi belonging to yeasts (Can-dida albicans ATCC 10231, Candida albicans ATCC 2091, Candida parapsilosis ATCC 22019, Candida glabrata ATCC 90030 and Candida krusei ATCC 14243). The microorganisms be-longing to ATCC came from American Type Culture Collection, routinely used for the evaluation of antimicrobials. All the used microbial cultures were first subcultured on nu-trient agar or Sabouraud agar at 35°C for 18-24 h or 30°C for 24-48 h for bacteria and fungi, […]
The surface of Mueller-Hinton agar (for bacteria) and RPMI 1640 with MOPS (for fungi) were inoculated with the suspensions of bacterial or fungal species. Microbial suspensions were prepared in sterile saline with an optical density of McFarland standard scale 0.5.
Samples containing examined compounds were dissolved in dimethyl sulfoxide (DMSO).
Furthermore, bacterial and fungal suspensions were put onto Petri dishes with solid me-dia containing 2 mg/mL of the tested compounds followed incubation at 37°C for 24h and 30°C for 48h for bacteria and fungi, respectively. The inhibition of microbial growth was judged by comparison with a control culture prepared without any sample tested. Ciprof-loxacin, vancomycin, nitrofurantoin, cefuroxime, ampicillin or nystatin (Sigma) were used as a reference antibacterial or antifungal compounds, respectively.
Subsequently, the MIC (Minimal Inhibitory Concentration) of the compounds was ex-amined by the microdilution broth method, using their two-fold dilutions in Mueller- […]
Hinton broth or (for bacteria) and RPMI 1640 broth with MOPS (for fungi) prepared in 96-well polystyrene plates. Final concentrations of the compounds ranged from 1000 to 0.488 µg/ml. Microbial suspensions were prepared in 0.85% NaCl with an optical density of 0.5 McFarland standard. Next each bacterial or fungal suspension was added per each well containing broth and various concentrations of the examined compounds. After incuba-
As for `CCCc1ccc(/C=N/NC(=O)c2ccc(O)cc2O)cc1` [Compound 13, 2,4-dihydroxy-N-[(4-propylphenyl)methylidene]benzohydrazide], the MBC was over 1000 µg/mL and the MIC lay in the range of 500 to 1000 µg/mL (≈ 1680 to 3350 µM).

On to `O=C(N/N=C/c1cc(I)cc(I)c1O)c1ccc(O)cc1O` [Compound 18, 2,4-dihydroxy-N-[(2-hydroxy-3,5-diiodophenyl)methylidene]benzohydrazide], for which the MBC was over 1000 µg/mL and the MIC lay within 500 to 1000 µg/mL (≈ 954 to 1910 µM). In turn, `O=C(N/N=C/c1ccccc1[N+](=O)[O-])c1ccc(O)cc1O` [Compound 19, 2,4-dihydroxy-N-[(2-nitrophenyl)methylidene]benzohydrazide] came in with an MIC of 500 to 1000 µg/mL (≈ 1660 to 3320 µM).

System in the next data set: not listed separately
Description: in vivo. To be noted: in vivo. How it is done: Wild-type AB strain zebrafish (Danio rerio) were housed in the Experimental Medicine Centre of Medical University of Lublin (Lublin, Poland), where all the experimental procedures on embryos and larvae were carried out. The animals were kept on a recirculating water supply at 26 ± 1 °C and a 10/14 dark–light cycle, and they were fed with artemia and commercial feed. Danio rerio embryos were obtained from females between 4 and 15 months of age. […] In order to avoid genetic bias in the study, eggs were randomly collected from at least three breeding groups, rinsed, and placed in Petri dishes in the cultured medium, which for Danio rerio is E3 solution. […] In accordance with the legislation of the European Union and Poland, the experiments performed on the earliest life-stages of Danio rerio until 120 h post-fertilization (120 hpf), not defined as protected, are not subject to regulations for animal experimentation.
They address the testing of chemicals using the Fish Embryo Acute Toxicity (FET) test with the species Danio rerio.
Immediately after fertilization, eggs were placed in sterile 24-well plates and exposed for 96 h to at least five concentrations of the test chemical, ranging from 1 to 500 µM and prepared ex tempore on each day of exposure, according to the principle of one egg per well and one concentration per plate. In each plate, 20 wells were filled with the solutions of the tested substance, and 4 wells of the last column were a negative internal control with E3 medium. Each well was filled with 2 mL of solution. Positive control plates were also prepared according to this scheme with 4 mg/L of 3,4-dichloroaniline (Sigma-Aldrich, Poznań, Poland) and a negative control with E3, and a negative solvent control with 1% DMSO, which was used as a solvent for the tested substances. At four time points, microscopic observations were made every 24 h. As indicators of mortality (so-called terminal observations; when at least one of these occurs, embryonic death is declared), the following were recorded: the coagulation of embryos, a lack of somite formation, a lack of detachment of the tail from the yolk sac and a lack of a heartbeat, which was observed from the 48th hour of the study. To confirm the absence of a heartbeat, a microscopic observation was conducted at 80× magnification for one minute. Then, the solutions of the tested chemicals, to maintain their constant composition throughout the test, were replaced with fresh ones, and the plates were incubated for another 24 h in an incubator at 26 ± 1 °C. […] In addition, a quantitative and qualitative summary of the morphological and physiological abnormalities that occurred in the tested Danio rerio embryos and larvae was also made. These included yolk sac edema, pericardial edema, spinal flexure, head deformities, tail deformities, developmental delay defined as a lack of hatching success for 96 hpf larvae, and also bradycardia.
Regression analysis was performed with Excel, and the above-mentioned values were obtained from the linear type of regression analysis. […] The results obtained from the heart rate study of 96 hpf zebrafish larvae were subjected to statistical analysis using one-way analysis of variance (ANOVA) and a post hoc Bonferroni test. The significance level was taken as p < 0.05.
`O=C(N/N=C/c1cccc([N+](=O)[O-])c1)c1ccc(O)cc1O` [Compound 20, 2,4-dihydroxy-N-[(3-nitrophenyl)methylidene]benzohydrazide]: the LC50 at 96 h is 34.8 mM and 10500 µg/mL. On the same count and under the same terms, the same measure for `O=C(N/N=C/c1ccc([N+](=O)[O-])cc1)c1ccc(O)cc1O` [Compound 21, 2,4-dihydroxy-N-[(4-nitrophenyl)methylidene]benzohydrazide]: 370 µM and 110 µg/mL; for `O=C(N/N=C/c1ccccc1Cl)c1ccc(O)cc1O` [Compound 22, N-[(2-chlorophenyl)methylidene]-2,4-dihydroxybenzohydrazide]: 56.6 µM and 16.4 µg/mL; for `O=C(N/N=C/c1ccccc1Br)c1ccc(O)cc1O` [Compound 23, N-[(2-bromophenyl)methylidene]-2,4-dihydroxybenzohydrazide]: 85.6 µM and 30.4 µg/mL. Same read-out and setting: under `O=C(N/N=C/c1ccccc1F)c1ccc(O)cc1O` [Compound 24, N-[(2-fluorophenyl)methylidene]-2,4-dihydroxybenzohydrazide] stands 4.24 mM and 1160 µg/mL.

The values are drawn from paper PMC10743905, “Design, Synthesis, and In Vitro and In Vivo Bioactivity Studies of Hydrazide–Hydrazones of 2,4-Dihydroxybenzoic Acid” (International Journal of Molecular Sciences, 2023).
